The values that follow come from PubChem BioAssay (NCI).

Molecules are shown by their SMILES.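 These data come from cells grown in 96-well plates and exposed to compound for 48 hours at five concentrations. GI50 = concentration required for 50% inhibition of growth. TGI: total growth inhibition.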 Where a SMILES comes first, the peptide text is derived from it. [ ]: non-standard residue; d: D form. The star is where a group is joined. NMeF = CN[C@@H](Cc1ccccc1)C(=O)O; NMeV = CN[C@H](C(=O)O)C(C)C; Boc = CC(C)(C)OC(=O)*; OBn = c1ccc(CO*)cc1

Test systems include OVCAR-5 ovarian; UO-31 renal; 786-0 renal; IGROV1 ovarian; NCI-H23 lung; RPMI-8226 leukemia; ACHN renal; SNB-19 CNS; SK-OV-3 ovarian; SF-268 CNS.
Holding throughout (test): growth of human tumour cells (NCI), 48 h

Consider `O=C(NCCNc1nccc(-c2c(-c3ccc(F)cc3)nc3sccn23)n1)c1ccccc1`, for which the GI50 in the test with OVCAR-5 ovarian was 18.1 µM; with UO-31 renal, 1.75 µM; with 786-0 renal, 15.3 µM; with IGROV1 ovarian, 3.48 µM; with NCI-H23 lung, 10.9 µM; in the test on RPMI-8226 leukemia, 5.88 µM. In addition, the GI50 is 2.98 µM with ACHN renal, 11.9 µM with SNB-19 CNS, 12.5 µM with SK-OV-3 ovarian and 12.4 µM in the test with SF-268 CNS. Moreover, the TGI was 99.3 µM in the test on OVCAR-5 ovarian; 18.5 µM in the test with UO-31 renal; over 100 µM in the test on 786-0 renal; 24.1 µM in the test on IGROV1 ovarian; 45.1 µM with NCI-H23 lung; 27 µM in the test on RPMI-8226 leukemia. Further, the TGI in the test on ACHN renal was 49.2 µM; in the test with SNB-19 CNS, over 100 µM; in the test on SK-OV-3 ovarian, 53.8 µM; in the test with SF-268 CNS, over 100 µM.
As to `NC1=CC(=O)c2nc3ccccc3c3ccnc1c23`, the GI50 was 13.8 µM in the test with OVCAR-5 ovarian; 3.49 µM in the test with UO-31 renal; 7.49 µM with 786-0 renal; 1.57 µM in the test on IGROV1 ovarian; 0.273 µM in the test with NCI-H23 lung; 5.18 µM in the test with RPMI-8226 leukemia. Also, the GI50 is 3.15 µM in the test on ACHN renal, 3.06 µM in the test on SNB-19 CNS, 12 µM in the test on SK-OV-3 ovarian and 4.26 µM in the test on SF-268 CNS. The TGI is 62 µM in the test on OVCAR-5 ovarian; over 56.4 µM in the test with UO-31 renal; over 66.5 µM in the test on 786-0 renal; 6.33 µM in the test with IGROV1 ovarian; 22.8 µM in the test with NCI-H23 lung; over 100 µM in the test with RPMI-8226 leukemia. For the same compound, the TGI was 33 µM with ACHN renal, over 93.2 µM in the test with SNB-19 CNS, over 52.9 µM in the test on SK-OV-3 ovarian and 22.1 µM in the test on SF-268 CNS.
`Cc1c(-c2nnc(-c3ccc(F)cc3)o2)nnn1-c1ccnc2c(C(F)(F)F)cccc12`: the GI50 in the test on OVCAR-5 ovarian was 66.7 µM; in the test with UO-31 renal, 60.3 µM; in the test on 786-0 renal it was 40.6 µM; in the test on IGROV1 ovarian, 23.4 µM; with NCI-H23 lung, 65.7 µM; with RPMI-8226 leukemia, 30.6 µM. Moreover, the GI50 in the test on ACHN renal was 30.8 µM; with SNB-19 CNS, 25.9 µM; in the test with SK-OV-3 ovarian, 30 µM; in the test with SF-268 CNS, 26.7 µM. In addition, the TGI in the test with OVCAR-5 ovarian, with UO-31 renal, with 786-0 renal, in the test on IGROV1 ovarian, in the test on NCI-H23 lung and in the test with RPMI-8226 leukemia was over 100 µM throughout. The TGI in the test on ACHN renal is over 100 µM; in the test with SNB-19 CNS, 82.3 µM; in the test on SK-OV-3 ovarian it was over 100 µM; with SF-268 CNS, over 100 µM.
For the compound `COC1OC(COS(=O)(=O)c2ccc(C)cc2)C(O)C(OS(=O)(=O)c2ccc(C)cc2)C1OS(=O)(=O)c1ccc(C)cc1` (stereo not drawn), the TGI in the test on OVCAR-5 ovarian, with UO-31 renal, in the test with 786-0 renal, with IGROV1 ovarian, in the test on NCI-H23 lung and in the test on RPMI-8226 leukemia was over 100 µM throughout. Also, the TGI in the test on ACHN renal, with SNB-19 CNS, in the test with SK-OV-3 ovarian and with SF-268 CNS was over 100 µM throughout.
For `COc1nc(N)nc2c1ncn2[C@@H]1O[C@H](CO)[C@@H](O)[C@@H]1O`, the GI50 with OVCAR-5 ovarian, in the test on UO-31 renal, in the test on 786-0 renal, in the test on IGROV1 ovarian, in the test with NCI-H23 lung and with RPMI-8226 leukemia was over 100 µM throughout. Also, the GI50 in the test on ACHN renal, in the test with SNB-19 CNS, in the test on SK-OV-3 ovarian and in the test with SF-268 CNS was over 100 µM each time. Further, the TGI in the test on OVCAR-5 ovarian, in the test with UO-31 renal, in the test on 786-0 renal, with IGROV1 ovarian, with NCI-H23 lung and in the test with RPMI-8226 leukemia was over 100 µM in each case. Also, the TGI in the test on ACHN renal, in the test on SNB-19 CNS, in the test with SK-OV-3 ovarian and in the test with SF-268 CNS was over 100 µM throughout.
On to `CC1=NC(C(C)C)C(=O)O1` (stereo not drawn), for which the TGI in the test on OVCAR-5 ovarian is over 100 µM; with UO-31 renal it was over 100 µM; in the test on 786-0 renal it was over 100 µM; with IGROV1 ovarian, over 100 µM; in the test with NCI-H23 lung it was over 100 µM; with RPMI-8226 leukemia, 56 µM. Further, the TGI in the test with ACHN renal, in the test on SNB-19 CNS, with SK-OV-3 ovarian and in the test on SF-268 CNS was over 100 µM in each case.
In the case of `CCOC(=O)c1c(Cl)c2c(n1Cc1cccc(OC)c1)-c1oncc1CC2`, the GI50 is 10.1 µM in the test with OVCAR-5 ovarian; 3.37 µM in the test on UO-31 renal; 4.5 µM with 786-0 renal; 1.23 µM in the test on IGROV1 ovarian; 3.55 µM in the test on NCI-H23 lung; 5.15 µM with RPMI-8226 leukemia. The GI50 in the test on ACHN renal was 4.54 µM; in the test with SNB-19 CNS, 4.41 µM; in the test on SK-OV-3 ovarian, 3.36 µM; in the test with SF-268 CNS it was 9.31 µM. For the same compound, the TGI is over 100 µM with OVCAR-5 ovarian; 78.6 µM in the test with UO-31 renal; 52.7 µM in the test with 786-0 renal; 59 µM in the test on IGROV1 ovarian; 60.6 µM in the test on NCI-H23 lung; over 100 µM in the test on RPMI-8226 leukemia. Also, the TGI with ACHN renal, with SNB-19 CNS, in the test with SK-OV-3 ovarian and with SF-268 CNS was over 100 µM in each case.
As for `CC(C)[C@@H](C(=O)N1CCC[C@H]1C(=O)OCc1ccccc1)N(C)C(=O)[C@H](C(C)C)N(C)C(=O)[C@H](Cc1ccccc1)N(C)C(=O)[C@H](NC(=O)OC(C)(C)C)C(C)C` (Boc-[dV][NMeF][NMeV][NMeV]P-OBn), the TGI in the test with OVCAR-5 ovarian is over 100 µM; in the test with UO-31 renal, over 100 µM; in the test with 786-0 renal, over 100 µM; in the test with IGROV1 ovarian, over 100 µM; in the test on NCI-H23 lung, over 50 µM; in the test with RPMI-8226 leukemia it was over 100 µM. The TGI with ACHN renal, with SNB-19 CNS, in the test with SK-OV-3 ovarian and in the test on SF-268 CNS was over 100 µM throughout. Moreover, the GI50 in the test with 786-0 renal is 39.5 µM; with RPMI-8226 leukemia, 4.6 µM; with SF-268 CNS, over 100 µM.
